The text below walks through data of the METLIN SMRT retention time set (Domingo-Almenara et al. 2019).

The nature of this series: gradient 5% acetonitrile 3 min, to 50% in 2 min, to 85% in 15 min, held 3 min, 100 µL/min. The conditions noted are these: column: Zorbax Extend-C18 2.1 x 50 mm; eluents: water / acetonitrile, 0.1% formic acid. Summed up:
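Values are retention times taken from adduct peaks that software picked and an analyst inspected. The pure standards were run as mixtures of ~100 molecules on HPLC linked to a quadrupole time-of-flight mass spectrometer, in positive and negative ionization mode. A Zorbax Extend-C18 column (2.1 × 50 mm, 1.8 μm) was used at 100 μL/min with water and acetonitrile, each including 0.1% formic acid.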
`O=C1OC(c2ccccc2)=N/C1=C\c1ccc(N(CCCl)CCCl)cc1` gave an RP-LC retention time of 1240 s.
`CS(=O)(=O)N1CCC(C(=O)Nc2cccc(F)c2)Oc2ccccc21` (centres undefined) had an RP-LC retention time of 894 s.
The compound `CCCCNC(=O)c1c(O)c2cccnc2n(-c2cccc(OC)c2)c1=O` showed an RP-LC retention time of 1140 s.
`O=C(Cn1cccc1-c1nc(-c2ccccc2)cs1)NCCCN1CCCC1` gave an RP-LC retention time of 601 s.
In the case of `O=C(COc1ccc(NC(=O)C2CC2)cn1)NC1CCN(Cc2ccccc2)CC1` it was 590 s; in that of `Nc1ccc(SCc2nc3cccc4c3n2CCC4)cc1`, 662 s.
With `CC1=C(c2ccc(F)cc2)S(=O)(=O)N=C1N1CCC(C(=O)NCCc2ccco2)CC1`, the RP-LC retention time was found to be 802 s.
`Cc1nc(CSc2cc(-c3ccccc3)ncn2)cs1` came in with an RP-LC retention time of 907 s.
`Cc1ccc2c(c1)N(Cc1ccc(Cl)cc1)N=C(C(=O)N1CCOCC1)S2(=O)=O` returned an RP-LC retention time of 896 s.
Take `COc1ccccc1N1CCN(c2ncccc2-c2nc(-c3ccc(Cl)cc3)no2)CC1`: the RP-LC retention time stood at 1320 s.
For `CN1c2cc(C(=O)NCc3ccc(F)cc3Cl)ccc2C(=O)N2CCCCC21` (centres undefined) the value was 833 s.
Regarding `CCC1CN2C=NC(N3CCN(C(=O)c4ccccc4)CC3)=CC2=N1` (centres undefined), the RP-LC retention time worked out at 611 s.
In the case of `COC(=O)c1c(-c2cccc(Cl)c2)noc1NCc1ccco1` it was 1060 s.
As to `COC(=O)c1c(C)[nH]c(C(=O)N2CCC(CC(=O)NCCc3c[nH]c4ccc(C)cc34)CC2)c1C`, the RP-LC retention time was determined as 750 s.
The compound `CC(C)CNC(=O)c1ccc2c(c1)Sc1ncccc1C(=O)N2C(C)C` displayed an RP-LC retention time of 805 s.
For the compound `COc1ccc(N2C(=O)CCC(C(=O)N3CCOCC3)C2c2ccc(OC)c(OC)c2)cc1` (centres undefined), the RP-LC retention time came out at 619 s.
`COCCn1ccc2nc(C)c(C(=O)NCc3ccc(C)o3)cc2c1=O`: the RP-LC retention time is 680 s.
For `O=C(NCC1CCCO1)c1ccc(-c2cnc(Oc3ccccc3)nc2)cc1` (centres undefined) the value was 779 s.
As for `Cc1cccc(N2CCN(C(=O)CCC3CCN(c4cc(NC5CC5)ncn4)CC3)CC2)c1`, the RP-LC retention time worked out at 717 s.
The compound `Cc1noc2nc(C)n(CC(=O)Nc3ccccc3Br)c(=O)c12` registered an RP-LC retention time of 766 s.
`Cn1c(=O)n(C)c2cc(Sc3ccccc3)c(NC(=O)C3CC3)cc21` registered an RP-LC retention time of 849 s.
`CC(C)n1cnc(S(=O)(=O)N2CCC(C(=O)Nc3ccc(F)c(Cl)c3)CC2)c1`: the RP-LC retention time was 834 s.
With `CC(=O)N1CCCCC1c1nc(-c2cccnc2)no1` (centres undefined), the RP-LC retention time amounted to 663 s.
In the case of `COc1ccc(N2C(=O)N[C@@H]3C[C@]2(C)Oc2ccc(C)cc23)cc1OC`, the RP-LC retention time was 735 s.
`CC(C)n1c(=O)sc2cc(S(=O)(=O)N3CCC(C(=O)N4CCOCC4)CC3)ccc21` gave an RP-LC retention time of 762 s.
Take `COCCc1noc(C2CN(S(=O)(=O)c3cccnc3)C2)n1`: the RP-LC retention time was 669 s.
For `O=C(NC(c1ccccc1)c1nnc(N2CCCCC2)o1)c1ccc2c(c1)OCO2` (centres undefined) the value was 847 s.
On to `CC(C)Oc1ccc(-c2noc(Cc3nnc(-c4ccc(F)cc4)o3)n2)cc1`, for which the RP-LC retention time was 1110 s.
The compound `O=C(Cn1cccc1-c1nc(-c2ccccc2)cs1)N1CCC(N2CCCCC2)CC1` came in with an RP-LC retention time of 716 s.
As for `CCOCCCNC(=O)N1CCC2(CC1)NC(=O)c1ccccc1O2`, the RP-LC retention time came to 652 s.
Regarding `CCOc1ccc(NC(=O)C2CCN(c3cc(N4CCSCC4)ncn3)CC2)cc1`, the RP-LC retention time was found to be 693 s.
In turn, `COc1ccccc1-c1noc(Cn2ncn3nc(-c4cc(C)ccc4C)cc3c2=O)n1` had an RP-LC retention time of 1100 s.
With `Cc1cc(CC(=O)N2CC(F)(F)C[C@H]2c2nc(C)no2)on1`, the RP-LC retention time came out at 732 s.
For `O=C(NC1CCCC1)N1CC(Oc2ccc(-c3nc(-c4ccccc4)no3)cc2)C1`, the RP-LC retention time turned out to be 1080 s.
The compound `Cn1ccc2cc(CCC(=O)NCc3ccncc3)ccc21` yielded an RP-LC retention time of 596 s.
The compound `Cc1ccc(-c2cc3c(N4CCC(C(=O)NC(C)C)CC4)nccn3n2)c(C)c1` gave an RP-LC retention time of 769 s.
`CN1c2cc(C(=O)NC3CCN(Cc4ccccc4)CC3)ccc2C(=O)N2CCCCC21` (centres undefined) gave an RP-LC retention time of 586 s.
Turning to `COc1cc(C2CC(=O)c3c([nH]c(C(=O)OCC4CCCCC4)c3C)C2)cc(OC)c1OC` (centres undefined), the RP-LC retention time amounted to 1180 s.
`c1ccc(-c2oncc2CN2CCN(c3ccccn3)CC2)cc1` registered an RP-LC retention time of 603 s.
As to `COCCc1noc(-c2cnc3nc(C)ccc3c2NCc2ccccc2C)n1`, the RP-LC retention time stood at 653 s.
`Cc1ccc(C)c(N2CCN(C(=O)c3cc(-c4ccncc4)cn3C)CC2)c1`: the RP-LC retention time was found to be 710 s.
For `Cn1nc(C2CCCN(C(=O)c3ccoc3)C2)n(C2CCCC2)c1=O` (centres undefined) the value was 672 s; for `CC(=O)N1CCCC1c1nc2ccccc2n1CC(=O)N1CCC(C)CC1` (centres undefined), 567 s; for `O=C(c1cocn1)N1CC(F)(F)C[C@H]1c1nnc(-c2ccncc2)o1`, 638 s.
In the case of `O=C(Cc1cccs1)N1CC(c2noc(C3CCCN3CC3CC3)n2)C1` (centres undefined) it was 599 s; in that of `CCc1ccc2c(c1)-c1ccccc1S(=O)(=O)N2CC(=O)NCCCn1ccnc1`, 675 s; in that of `COc1cccc(-n2nnc(-c3nc(-c4ccccc4OC)cs3)c2N)c1`, 1120 s.
Consider `CCOC(=O)C1CCN(c2cc3c(cc2NC(=O)c2ccco2)n(C)c(=O)n3C)CC1`, for which the RP-LC retention time turned out to be 904 s.
Regarding `CCc1ccccc1NC(=O)Cn1c(C)nc2onc(C)c2c1=O`, the RP-LC retention time was 845 s.
`O=C(Nc1cccc(OCc2nnc(-c3ccccc3)o2)c1)C1COc2ccccc2O1` (centres undefined) showed an RP-LC retention time of 1010 s.
The compound `CCOc1ccc(CNC(=O)c2cc3c(=O)n(CC)c4ccccc4n3n2)cc1OC` returned an RP-LC retention time of 1180 s.
For `O=C(O)c1cn(-c2cccc(F)c2)nn1`, the RP-LC retention time was 652 s.
Regarding `CCOC(=O)CCNC(=O)N1CCN(Cc2nc3cc(-c4ccccc4)ccc3o2)CC1`, the RP-LC retention time amounted to 675 s.
The compound `CSc1ccc(NC(=O)c2cn3c(n2)CSCC3)cc1` yielded an RP-LC retention time of 727 s.
Compound `CCOc1cccc(-c2noc(-c3nn(-c4cccc(F)c4)ccc3=O)n2)c1` returned an RP-LC retention time of 978 s.
In the case of `O=C(c1ccc(F)c(Cl)c1)N1CCCC1c1nc(-c2ccccc2)no1` (centres undefined), the RP-LC retention time is 1040 s.
In the case of `Cc1sc(-c2nc(C(C)C)cs2)cc1S(=O)(=O)N1CCN(c2ccccc2)CC1` it was 1420 s; in that of `CC1CCCN(CCCNC(=O)c2nnc(-c3ccc(S(=O)(=O)N4CCCC4)cc3)o2)C1` (centres undefined), 642 s; in that of `Cc1c(CC(=O)N2CCN(c3cccc(Cl)c3)CC2)c2c(=O)n(C)c(=O)n(C)c2n1C`, 790 s.
In turn, `O=C(Cn1nc(C(=O)N2CCCC2)c2ccccc21)NCc1cccnc1` showed an RP-LC retention time of 580 s.
In the case of `CN1c2cc(C(=O)N3CCN(C4CCCCC4)CC3)ccc2C(=O)N2CCCCC21` (centres undefined) it was 608 s.
The compound `CCCCCNC(=O)c1ccc2nc(CCc3ccc(NC(=O)C(C)C)cc3)[nH]c2c1` yielded an RP-LC retention time of 689 s.
In the case of `O=C(NCc1ccc(F)cc1)N1CCC(n2c(-c3ccco3)nc3cccnc32)C1` (centres undefined) it was 730 s.
For `Cc1nc(-c2csc(S(=O)(=O)N3CCCC(C(=O)Nc4ccc5c(c4)OCCO5)C3)c2)no1` (centres undefined) the value was 880 s; for `C[C@@H](O)[C@H]1C(=O)N2C(C(=O)OCOC(=O)C(C)(C)C)=C(SC3CN(C4=NCCS4)C3)[C@H](C)[C@H]12`, 732 s; for `Cc1ccc(F)c(NS(=O)(=O)c2cc(-c3[nH]ncc3C(=O)N3CCCC3)oc2C)c1`, 710 s.
In the case of `CCOc1ccc(-c2nn3c(CSc4ccccc4)nnc3s2)cc1OC` it was 987 s; in that of `COc1ccc(NC(=O)N2CCC(n3cnnc3C3CC3)C2)c(OC)c1` (centres undefined), 610 s; in that of `O=c1n(CC2CC2)nc2n1CCN(S(=O)(=O)Cc1ccccc1)CC2`, 741 s.
As for `Cc1nc(N2CCN(c3ccc(F)cc3)CC2)ncc1C(=O)O`, the RP-LC retention time was determined as 888 s.
Compound `CCc1ccc(-c2noc(Cn3cnc4c(cnn4-c4ccc(OC)cc4)c3=O)n2)cc1` returned an RP-LC retention time of 1130 s.
Turning to `CNC(=O)c1cccc(Nc2c(-c3ccc(Cl)cc3)nc3cnccn23)c1`, the RP-LC retention time stood at 692 s.
The compound `Cc1ccc(C)c(N2CCN(C(=O)c3cn4ccccc4n3)CC2)c1` registered an RP-LC retention time of 771 s.
`CCC(=O)N1CCc2c(sc3ncnc(N4CCc5ccccc54)c23)C1` showed an RP-LC retention time of 734 s.
In the case of `O=C(c1cn(-c2cc(N3CCCCC3)ncn2)cn1)N1CCN(c2ccccc2)CC1`, the RP-LC retention time came out at 944 s.
`O=C(Nc1nnc(-c2cc(Cl)sc2Cl)o1)c1cccc(C(F)(F)F)c1`: the RP-LC retention time came out at 1010 s.
As to `O=C(NC1CC1)C1CCCN(S(=O)(=O)c2c[nH]c(C(=O)N3CCCCCC3)c2)C1` (centres undefined), the RP-LC retention time was determined as 702 s.
In turn, `Cc1nc(-c2ccccc2OC2CN(S(=O)(=O)c3cccc4nsnc34)C2)no1` yielded an RP-LC retention time of 883 s.
Turning to `CS(=O)(=O)N(Cc1ccncc1)C1CN(C(=O)c2ccoc2)C1`, the RP-LC retention time turned out to be 552 s.
